A short description of series [1]: Everolimus pharmacokinetics in whole blood (HPLC-MS/MS), single-agent and combined with metformin. The format is in vivo, human. As to conditions: for k el: read-out: λz (converted); for half-life: all 7 patients, mean (SD). The procedure: (§1) The pharmacokinetic parameters were calculated using PKSolver. All P values were calculated using the R statistical programming language (paired Student’s t-test).

The conditions of series [2]: everolimus; cited from earlier work.
The subject of a further series is endometrial cancer. As to conditions: cited from earlier work.
A short description of a further series: clinical. The procedure: as §1

On to `CO[C@H]1C[C@@H]2CC[C@@H](C)[C@@](O)(O2)C(=O)C(=O)N2CCCC[C@H]2C(=O)O[C@H]([C@H](C)C[C@@H]2CC[C@@H](OCCO)[C@H](OC)C2)CC(=O)[C@H](C)/C=C(\C)[C@@H](O)[C@@H](OC)C(=O)[C@H](C)C[C@H](C)/C=C/C=C/C=C/1C` [everolimus], for which the Cmax in series [1] (everolimus 5 mg qd, in combination with metformin 500 mg bid, n = 2) amounted to 39.45 ng/mL; in series [1] (everolimus 5 mg qd, single-agent, n = 2) it was 34.80 ng/mL; in series [1] (human, whole blood, oral, everolimus 10 mg qd, single-agent (day 7), n = 5, mean (SD), read-out: Cmax) it was 73.1 ng/mL. The AUC in series [1] (everolimus 10 mg qd, single-agent, AUC t = 0 to 24 h, n = 5, mean (SD)) was 0.713 (0.35) mg/l*h; in series [1] (human, whole blood, oral, 5 mg, everolimus 5 mg qd, single-agent, n = 2, read-out: AUC), 282 ng·h/mL; in series [1] (human, whole blood, oral, everolimus 5 mg qd, in combination with metformin, n = 2, read-out: AUC), 254 ng·h/mL; in series [1] (human, whole blood, oral, everolimus 10 mg qd, in combination with metformin, AUC t = 0 to 24 h, n = 5, mean (SD), read-out: AUC), 639 ng·h/mL. The k el in series [1] (human, whole blood, oral, 5 mg, everolimus 5 mg qd, single-agent, n = 2) was 1.22e-05 s⁻¹; in series [1] (human, whole blood, oral, 10 mg, everolimus 10 mg qd, single-agent, n = 5, mean (SD)), 7.78e-06 s⁻¹; in series [1] (human, whole blood, oral, everolimus 5 mg qd, in combination with metformin, n = 2) it was 9.72e-06 s⁻¹; in series [1] (human, whole blood, oral, everolimus 10 mg qd, in combination with metformin, n = 5, mean (SD)) it was 8.06e-06 s⁻¹. Further, the clearance in series [1] (human, whole blood, oral, everolimus as single agent) was determined as 162 mL/min; in series [1] (human, whole blood, oral, everolimus in combination with metformin), 300 mL/min. In addition, the half-life is 23.2 h in series [1] (human, whole blood, oral, everolimus in combination with metformin (day 15)) and 23.1 h in series [1] (human, whole blood, oral, everolimus single-agent (day 7)). Besides, the “elimination half-life (t1/2)” value in series [2] is reported as 30 h.
On to `CN(C)C(=N)N=C(N)N` [metformin], for which the “rate of disease progression” value with endometrial cancer (self-reported metformin use with an mTOR inhibitor, vs. 33% without) is listed as 12%. For the same compound, the “response rate to an mTOR inhibitor” value in the series on endometrial cancer (self-reported metformin use, 94 patients, three trials of various mTOR inhibitors, vs. 7% without) was 18%. In the series “clinical” (human, in vivo, 500 mg), this compound showed an AUC of 8320 ng·h/mL and a k el of 4.72e-05 s⁻¹. In addition, the Cmax in the series “clinical” (metformin 500 mg bid, in combination with everolimus (day 15), n = 5, mean (SD)) is reported as 1027 (261) μg/l.

One may read the half-life as how long it takes for the measured level to halve.
